In experiment [1] the test system is CaM/4Ca^2+ with R1 labels at A17C–R1 and A128C–R1. To be noted: labelled versus unlabelled CaM/4Ca^2+; cited from earlier work.
In a further experiment the test system is CaM/4Ca^2+. The experiment is described as follows: Combined time-resolved DEER and ssNMR: binding pathway of M13 to CaM/4Ca^2+. On the set-up: species or system Human.

KRRWKKNFIAVSAANRFKKISSSGAL [M13]: the “reduction of affinity for M13 by R1 labels at A17C–R1 and A128C–R1” value in experiment [1] was “about 2.5 fold”. In addition, in the experiment on CaM/4Ca^2+, the “τ, conformational rearrangement of state B to state C” value is 7 to 18 ms and the “τ, state A* to collapsed intermediate B” value lay within 1.5 to 2.5 ms. The “timescale τ, state A converted to final compact complex state C” value with CaM/4Ca^2+ (abstract) is listed as at most 600 μs.

The record behind these values is PMC8833187 (Proceedings of the National Academy of Sciences of the …, 2022).
